From the supplement of paper PMC11208160

Assay: recombinant barcode read abundance after kanamycin selection (control-corrected) (log10(CPM+1)); higher = more efficient recombination; sequences stand for … in AGTGCAGAGAAAATCGGCCAGTTTTCTCTGCCTGCAGTCCGCATGCCGT…AGATTTATGCAGCGGACTGCCTTTCTCCCAAAGTGATAAACCGGACAGTATCATGGACCGGTTTTCCCGGTAATCCGTATTTGCAAGGTTGGTTTCACT; site = the 11-nt target
Procedure: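 Pooled E. coli target-specificity screen for the IS621 bridge recombinase. Each library plasmid pairs an 11-nt target (CT core) with a bridge RNA whose target-binding loop (9-nt LTG + 4-nt RTG) is reprogrammed; the rest of the 177-nt WT IS621 bridge RNA scaffold is fixed. The plasmid is co-electroporated with a WT donor plasmid; recombinase is induced with 0.1 mM IPTG and recombinants are selected on kanamycin. Recombinant barcodes are sequenced, converted to CPM, averaged over two biological replicates and corrected by the unselected control CPM. Molecule = full bridge RNA written as DNA: LTG = specificity nt 1-9, RTG = reverse complement of specificity nt 8-11, in the WT scaffold.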
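Note: IS621 recombinase and bridge RNA in Escherichia coli cells.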

With “ACTAACACTTGGGTTCTAACCTGTTGCCT (site GCTAACACTAG)” as the sequence, how does the “recombinant barcode read abundance (log10)” value read?
Its value is 0.0913.

Which “recombinant barcode read abundance (log10)” value does the source give for “ACTAACACTTGGGTTCTAACCTGTTGCCT (site TCTAACACTAG)” here?
Its value is 0.546.

Which “recombinant barcode read abundance (log10)” value does the source give for “ACTAACCCTTGGGTTCTAACCTGTTGCCT (site AATAACCCTAG)” here?
Its value is 0.0415.

With “ACTAACCCTTGGGTTCTAACCTGTTGCCT (site ACTAACCCTAG)” as the sequence, how does the “recombinant barcode read abundance (log10)” value read?
Its value is 1.47.

With “ACTAACCCTTGGGTTCTAACCTGTTGCCT (site AGTAACCCTAG)” as the sequence, how does the “recombinant barcode read abundance (log10)” value read?
The value was 0.08.

For “ACTAACCCTTGGGTTCTAACCTGTTGCCT (site ATTAACCCTAG)”, which “recombinant barcode read abundance (log10)” value is on record?
Its value is 0.074.

For “ACTAAGCCTTGGGTTCTAACCTGTTGCGG (site ACTAAGCCTCC)”, which “recombinant barcode read abundance (log10)” value is on record?
Its value is 1.93.

For “ACTAAGCCTTGGGTTCTAACCTGTTGCGG (site AGTAAGCCTCT)”, which “recombinant barcode read abundance (log10)” value is on record?
Its value is 0.151.

For “ACTACCTCTTGGGTTCTAACCTGTTGCCT (site AATACCTCTAG)”, which “recombinant barcode read abundance (log10)” value is on record?
The value was 0.0169.

With “ACTACCTCTTGGGTTCTAACCTGTTGCCT (site ACTACCTCTAG)” as the sequence, how does the “recombinant barcode read abundance (log10)” value read?
The value was 1.35.

Which “recombinant barcode read abundance (log10)” value does the source give for “ACTACCTCTTGGGTTCTAACCTGTTGCCT (site AGTACCTCTAG)” here?
The value was 0.0737.

Which “recombinant barcode read abundance (log10)” value does the source give for “ACTACCTCTTGGGTTCTAACCTGTTGCCT (site ATTACCTCTAG)” here?
The value was 0.0805.

For “ACTACTACTTGGGTTCTAACCTGTTGCCT (site AATACTACTAG)”, which “recombinant barcode read abundance (log10)” value is on record?
The value was 0.227.

With “ACTACTACTTGGGTTCTAACCTGTTGCCT (site ACTACTACTAG)” as the sequence, how does the “recombinant barcode read abundance (log10)” value read?
The value was 0.172.

With “ACTACTACTTGGGTTCTAACCTGTTGCCT (site AGTACTACTAG)” as the sequence, how does the “recombinant barcode read abundance (log10)” value read?
Its value is 0.492.

With “ACTACTACTTGGGTTCTAACCTGTTGCCT (site ATTACTACTAG)” as the sequence, how does the “recombinant barcode read abundance (log10)” value read?
The value was 0.111.

Which “recombinant barcode read abundance (log10)” value does the source give for “ACTAGACCTTGGGTTCTAACCTGTTGCCT (site ACTAGACCTAG)” here?
The value was 0.5.

Which “recombinant barcode read abundance (log10)” value does the source give for “ACTAGACCTTGGGTTCTAACCTGTTGCCT (site ACTCGACCTAG)” here?
The value was 0.134.

For “ACTAGGACTTGGGTTCTAACCTGTTGCGT (site ACTAGGACTAC)”, which “recombinant barcode read abundance (log10)” value is on record?
Its value is 2.91.

With “ACTAGGACTTGGGTTCTAACCTGTTGCGT (site ACTAGGACTCC)” as the sequence, how does the “recombinant barcode read abundance (log10)” value read?
Its value is 1.22.

With “ACTAGGACTTGGGTTCTAACCTGTTGCGT (site ACTAGGACTGC)” as the sequence, how does the “recombinant barcode read abundance (log10)” value read?
The value was 0.248.

Which “recombinant barcode read abundance (log10)” value does the source give for “ACTAGGACTTGGGTTCTAACCTGTTGCGT (site ACTAGGACTTC)” here?
Its value is 0.26.

For “ACTAGGCCTTGGGTTCTAACCTGTTGCGG (site ACTAGGCCTCC)”, which “recombinant barcode read abundance (log10)” value is on record?
Its value is 2.2.

For “ACTAGGCCTTGGGTTCTAACCTGTTGCGG (site ACTATCCCTCC)”, which “recombinant barcode read abundance (log10)” value is on record?
The value was 0.0234.

For “ACTAGGGCTTGGGTTCTAACCTGTTGCGG (site AATAGGGCTCC)”, which “recombinant barcode read abundance (log10)” value is on record?
Its value is 0.729.

With “ACTAGGGCTTGGGTTCTAACCTGTTGCGG (site ACTAGGGCTCC)” as the sequence, how does the “recombinant barcode read abundance (log10)” value read?
The value was 3.25.

Which “recombinant barcode read abundance (log10)” value does the source give for “ACTAGTCCTTGGGTTCTAACCTGTTGCCA (site ACTACTCCTTC)” here?
Its value is 0.0602.

Which “recombinant barcode read abundance (log10)” value does the source give for “ACTAGTCCTTGGGTTCTAACCTGTTGCCA (site ACTAGTCCTTG)” here?
Its value is 0.326.

For “ACTAGTCCTTGGGTTCTAACCTGTTGCTT (site ACTAGTCCTAA)”, which “recombinant barcode read abundance (log10)” value is on record?
Its value is 0.294.

Which “recombinant barcode read abundance (log10)” value does the source give for “ACTAGTCCTTGGGTTCTAACCTGTTGCTT (site ACTAGTCCTAC)” here?
The value was 0.143.

Which “recombinant barcode read abundance (log10)” value does the source give for “ACTAGTCCTTGGGTTCTAACCTGTTGCTT (site ACTAGTCCTAG)” here?
The value was 0.189.

For “ACTAGTCCTTGGGTTCTAACCTGTTGCTT (site ACTAGTCCTAT)”, which “recombinant barcode read abundance (log10)” value is on record?
The value was 0.316.
